This note sets out measurements from US12150940B2, “WASp-protecting small molecules, compositions, methods and uses thereof in the treatment of innate and acquired immune-related disorders or conditions” (BAR ILAN UNIVERSITY, priority 2016, dated 2024).

The target of assay [1] is T1, human WASp (Homo sapiens, UniProt P42768, K230R/R34Q).
T1 construct: expressed in transfected cells; host or cells: HEK 293T, transient transfection; unpurified cell lysate
T1 sequence (P42768 1-502 R34Q/K230R): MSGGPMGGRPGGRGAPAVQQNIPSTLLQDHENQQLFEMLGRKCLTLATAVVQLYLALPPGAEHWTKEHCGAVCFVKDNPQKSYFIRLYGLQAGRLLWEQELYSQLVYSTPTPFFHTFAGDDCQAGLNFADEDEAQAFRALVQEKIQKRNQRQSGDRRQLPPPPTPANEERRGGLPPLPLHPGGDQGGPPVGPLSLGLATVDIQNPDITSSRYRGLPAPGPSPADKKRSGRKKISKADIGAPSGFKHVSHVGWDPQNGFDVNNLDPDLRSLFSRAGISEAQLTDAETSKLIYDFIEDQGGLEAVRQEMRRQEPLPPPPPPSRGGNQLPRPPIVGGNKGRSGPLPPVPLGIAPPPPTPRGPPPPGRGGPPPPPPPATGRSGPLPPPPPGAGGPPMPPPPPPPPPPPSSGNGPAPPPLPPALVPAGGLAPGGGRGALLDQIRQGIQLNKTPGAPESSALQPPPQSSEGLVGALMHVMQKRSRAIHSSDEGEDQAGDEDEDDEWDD
Briefly: MicroScale Thermophoresis (MST) binding, YFP-WASp in HEK 293T cell lysate. How it is done: Diluted cell lysates of YFP-WASp/N-WASp/WAVE2-expressing HEK 293T cells were incubated with serially-diluted (100 μM-3 nM) SMCs. The mixed lysates and SMCs were then loaded into standard-treated Monolith™ capillaries and the fluorescence of the samples was measured by the Monolith NT.115 instrument at 60% MST power. Binding curves of WASp with SMC #6 (FIG. 3A), SMC #30 (FIG. 3B), SMC #33 (FIG. 3C), SMC #34 (FIG. 3D) and Y-27632 (FIG. 3E) or of N-WASp (FIG. 3F) or WAVE2 (FIG. 3G) with SMC #34 were generated by the NanoTemper Analysis 2.231 software. Normalized fluorescence (hot fluorescence/initial fluorescence) is plotted as a function of SMC concentration. […]
YFP-tagged WASp was obtained from cell lysates of Human Embryonic Kidney (HEK) 293T, transiently transfected with YFP-WASp/WAVE2/N-WASp by DNA-calcium phosphate co-precipitation as previously described (Reicher et al, 2012). […] After loading into the instrument (Monolith NT.115, NanoTemper), the samples were measured by standard protocols at 60% MST power. […] KD values were determined using the NanoTemper analysis software (NT Analysis 1.5.37 or 2.2.31).
Following this in silico screening, the inventors identified eight SMCs (#6, #23, #24, #25, #30, #32, #33, #34, see Table 1). […] The SMCs that specifically bind the degradation pocket of WASp were further evaluated by the inventors.

Assay [2] relates to Jurkat T cells. As to the kind of experiment: Lymphocyte migration on ICAM-1/SDF-1α-coated cover glasses. The assay is classed as cell-based, human. The note with it: tracked over 20 min, mean ± SE. How it is done: Jurkat T cells were pretreated with DMSO or the indicated WASp-binding SMCs, and cell migration on ICAM-1/SDF-1α-coated cover glasses was tracked over a 20-min period, as described in Experimental procedures. Each line in FIG. 10A represents one cell. The tracks of five representative cells from each treatment are presented.
Error bars represent the SE from the mean. P values versus DMSO-treated control cells are presented and were calculated by two-tailed Student's t-test.
Approximately 1×10^5 lymphocytes were seeded over chambered coverslips (LabTek) pre-coated with 6 μg/ml ICAM-1 and 2 μg/ml SDF-1α. Cells were incubated at 37° C., 5% CO2 and DIC images were acquired with the Zeiss Observer Z1 inverted microscope every 5 s for 20 min under a 20× objective lens using Zen software. The random movement (Displacement and velocity) of the cells was automatically tracked and analyzed using TrackMate plugin of ImageJ software. An individual trace was assigned to each of the analyzed cells.
A common theme of active lymphocytes is their high migratory ability. This enables them to move within tissues and reach and engage target cells (Burkhardt et al, 2008). Because WASp plays a role in cellular motility, the ability of WASp-binding SMCs to effectively enhance the migration of lymphocytes was tested. The random movement of SMC-treated or control cells was automatically tracked and analyzed using live microscopy, as described in Experimental procedures.

The test system of assay [3] is PBMCs. Briefly: Lymphocyte activation in PBMCs (CD69 and activated LFA-1, flow cytometry). The assay is classed as cell-based, human. As to conditions: PBMCs stimulated with PMA and Ionomycin, vs control. Here is the method:
Figures show 1×10^6 PBMC cells/ml stimulated with PMA and Ionomycin that were treated with DMSO or WASp-binding SMCs. After incubation, the cells were stained with PE-Cy5™-conjugated mouse anti-human CD69 and lymphocyte activation was measured by flow-cytometry as described in the Experimental procedures. Histograms of DMSO versus SMC #6 (FIG. 8A), SMC #30 (FIG. 8B), SMC #33 (FIG. 8C), and SMC #34 (FIG. 8D) are presented and represent three independent experiments.
After incubation, the cells were stained with anti-activated LFA-1 antibody (KIM127), followed by staining with Alexa488-Fluor goat anti-mouse IgG1 secondary antibody, and lymphocyte activation was measured by flow-cytometry as described in the Experimental procedures. Histogram of negative control versus SMC #6 is presented.
PBMCs or Jurkat cells (about 3×10^5 cells) were incubated for 4 h, at 37° C. with 50 ng/ml PMA and 250 ng/ml lonomycin, or 40 ng/ml PMA and 6 μM Ionomycin, respectively, or left untreated. After incubation, the cells were collected and stained with 1 μg/ml anti-active human LFA-1 antibody (purified from KIM127 hybridoma sup, ATCC Cat #: CRL-2838, Sigma) for 30 min in 37° C., followed by staining with Alexa488-Fluor goat anti-mouse IgG1 secondary antibody (Molecular Probes, Cat #: A-21121), 30 min on ice. Cells were then co-stained with PE-Cy5™-conjugated mouse anti-human CD69 (BD Pharmingen, Cat #: 555532) to measure lymphocyte activation.
Lymphocyte activation is a hallmark of a normal immune response. To test whether treatment with WASp-binding SMCs could upregulate lymphocyte activation, freshly-isolated PBMCs were incubated with SMCs or control (solvent only) and stimulated with PMA and lonomycin. The cells were then stained with two different antibodies, which recognize two lymphocyte activation markers, CD69 and an epitope exposed at the active conformation of the integrin LFA-1 (KIM127). Both were detected by flow-cytometry.

The test system of assay [4] is platelets. Briefly: Platelet intra-cellular calcium concentration (Indo-1-AM). The format is cell-based, human. The note with it: TRAP-6 10 μM, vs solvent. Here is the method: Freshly-isolated human platelets were incubated with either control DMSO or the indicated WASp-binding SMCs, specifically, SMC #6 (FIG. 11A), SMC #30 (FIG. 11B), SMC #33 (FIG. 11C) and SMC #34 (FIG. 11D). Platelets were stimulated with TRAP-6 and calcium levels were measured by spectrofluorometer, as described in Experimental procedures. Data are representative of three independent experiments.
Cells were incubated with 5 μM Indo-1-acetoxymethylester (Indo-1-AM, Teflabs) in Tyrode's buffer at 37° C. for 20 min. The cells were washed once, resuspended in Tyrode's buffer containing 10 mM HEPES and maintained at room temperature for 20 min. The cells were incubated at 37° C. for 5 min before measurements and then stimulated with 10 μM TRAP-6. The Ca^2+ influx was measured by spectrofluorometer using the Synergy 4 Microplate Reader (Bio Tek).
However, following receptor-mediated stimulation, platelets dramatically elevate their intra-cellular calcium concentrations, which in turn serve as signaling cues that evoke platelet effector functions, including platelet spreading, adhesion and aggregation (Varga-Sabo et al, 2009). Therefore, the ability of WASp-protecting SMCs to upregulate intra-cellular calcium accumulation in activated platelets was next tested. Freshly-isolated human platelets were incubated with SMC #6, #30, #33 and #34 or with the solvent (negative control). Following incubation, platelets were stimulated with thrombin receptor activator peptide TRAP-6 (10 μM) and calcium levels were measured by spectrofluorometer, using Indo-1-AM-based calcium assay as described in Experimental procedures.

The target of assay [5] is T2, WIP-WASp interaction (Homo sapiens, UniProt P42768, K230R/R34Q).
T2 construct: expressed in transfected cells
Briefly: FRET analysis of WIP-WASp interaction in activated T-cells expressing CFP-WASp and YFP-WIP. The assay is classed as cell-based. As to conditions: anti-CD3 stimulatory coverslips, fixed after 5 min; mean ± SE. Here is the method: FIG. 13A: Jurkat T cells stably expressing CFP-WASp and YFP-WIP were treated with WASp-binding SMC #6, SMC #30, SMC #33, SMC #34 or control. The cells were then plated on stimulatory coverslips (coated with an anti-CD3 antibody), and fixed after 5 min. Cells were imaged by confocal microscope, and FRET efficiency was measured by the donor-sensitized acceptor emission technology (see Experimental procedures for details).
FIG. 13B: graph summarizing the percentage FRET efficiency in cells plated on the stimulatory coverslips, with the indicated treatment. Data are from four independent experiments. Error bars represent the SE from the mean. P values were calculated by two-tailed Student's t-test.
Spreading assays were performed as previously described (Fried et al, 2014; Barda-Saad 2005). Briefly, T cells (2×10^6 cells/ml) were seeded on the bottom of chambered cover glasses (LabTek) that were pre-coated with anti-CD3 stimulatory monoclonal antibodies (10 μg/ml). The cells were incubated in imaging buffer [RPMI without phenol red containing 10% fetal calf serum (FCS) and 25 mM HEPES] at 37° C., 5% CO2, for the times indicated in the figure legends. Cells were fixed for 25 min with 4% paraformaldehyde in phosphate-buffered saline (PBS) and then were washed three times with PBS.
Double-color FRET was performed as described previously (Barda-Saad et al, 2005; Pauker, 2011, Pauker, 2012). […] The non-FRET components were calculated and removed with calibration curves derived from images of single-labeled cells containing CFP or YFP, as previously described (Barda-Saad et al, 2005). […] Bleed-through components were calculated as a function of the intensity of the expressed fluorescent proteins with data gathered from single-labeled cell lines. By using the intensity measured pixel by pixel through the different filter sets, as well as cross-talk elements that were isolated from the control, single-labeled cells, the measured FRET was corrected and the actual FRET efficiency at every pixel was determined. The relative FRET efficiency (FRETeff) was calculated on a pixel-by-pixel basis with the following equation: FRETeff=FRETcorr/(FRETcorr+donor)×100%, where FRETcorr is the pixel intensity in the corrected FRET image, and donor is the intensity of the corresponding pixel in the appropriate donor channel image. To increase the reliability of the calculations and to prevent low-level noise from distorting the calculated ratio, the inventors excluded pixels below 50 intensity units, as well as saturated pixels from the calculations, and set their intensities to zero. […] The FRET efficiency in the negative control system was measured and calculated in the same manner as that in the main experiment. […]

T2 sequence (O43516 whole entry partner, one chain of several): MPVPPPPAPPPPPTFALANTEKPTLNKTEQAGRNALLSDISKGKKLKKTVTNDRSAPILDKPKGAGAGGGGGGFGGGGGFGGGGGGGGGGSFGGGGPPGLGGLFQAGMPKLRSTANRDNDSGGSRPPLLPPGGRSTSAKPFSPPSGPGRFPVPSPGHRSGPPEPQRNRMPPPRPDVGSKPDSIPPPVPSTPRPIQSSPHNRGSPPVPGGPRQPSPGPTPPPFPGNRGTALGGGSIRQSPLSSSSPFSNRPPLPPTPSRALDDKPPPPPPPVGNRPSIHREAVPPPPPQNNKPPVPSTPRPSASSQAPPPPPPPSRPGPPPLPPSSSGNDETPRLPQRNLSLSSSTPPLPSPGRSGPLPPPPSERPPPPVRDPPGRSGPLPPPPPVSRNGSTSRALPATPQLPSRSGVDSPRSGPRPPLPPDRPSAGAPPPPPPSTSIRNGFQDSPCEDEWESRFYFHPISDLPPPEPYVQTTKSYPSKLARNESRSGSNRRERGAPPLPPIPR

As for `C[C@@H](N)[C@H]1CC[C@H](C(=O)Nc2ccncc2)CC1` [Y-27632], the “binding to WASp” value in assay [1] is recorded as “did not show binding”.
With `COC(=O)c1ccc2c(=O)n(Cc3ccc(C(=O)NC4CCCC4)cc3)c(=S)[nH]c2c1` [SMC #30, 3-(4-Cyclopentylcarbamoyl-benzyl)-4-oxo-2-thioxo-1,2,3,4-tetrahydro-quinazoline-7-carboxylic acid methyl ester], the mean cell displacement in assay [2] is given as 41.07±4.69. The “lymphocyte activation (CD69, activated LFA-1)” value in assay [3] is “upregulation of lymphocyte activation”. For the same molecule, the “intra-cellular calcium concentration in activated platelets” value in assay [4] is reported as “dramatically enhanced”. Further, the “average FRET efficiency” value in assay [5] stood at 24.4±1.4%.
